According to US20230324392A1, “METHODS AND COMPOSITIONS FOR TARGETING CYTOSOLIC DSDNA SIGNALING IN CHROMOSOMALLY UNSTABLE CANCERS” (MEMORIAL SLOAN KETTERING CANCER CENTER, priority 2020, published 2023):
Values joined by “and” are separate entries in the source; they are usually repeats but may differ in a detail not shown here. Equal values may be shown once.

What was measured:
B16F10 cells [1] = assay: Tail vein inoculation of B16F10 cells in C57BL/6 mice, survival; format: in vivo, mouse
Description: Animal metastasis studies: Animal experiments were performed in accordance with protocols approved by the MSKCC Institutional Animal Care and Use Committee. […] There was no need to randomize animals. Investigators were not blinded to group allocation. For tail vein injections, 5×10^4 4T1, 2.5×10^4 B16F10, or 10^5 CT26 cells were injected into the tail vein of 6-7-week old BALB/c (4T1 and CT26) or C57BL/6 (B16F10) mice. Metastasis was primarily assessed through overall survival. Overall survival endpoint was met when the mice died or met the criteria for euthanasia under the IACUC protocol. […] Surface lung metastases were assessed at endpoint by direct visual examination after euthanasia at which points lungs were perfused and fixed in 4% paraformaldehyde (4T1 and B16F10 experiments) or stained using India-ink (CT26 experiments). Furthermore, lung metastasis after injection of 4T1 cells was qualitatively assessed using routine hematoxylin and eosin (H&E) staining. […] Primary tumors were surgically excised on day 7 after implantation and metastatic dissemination was assessed by monitoring overall survival or on day 30 through quantification of surface lung metastases upon euthanasia. The length (L) and width (W) of the primary tumors were measured using calipers. Tumor size was calculated according to the following formula: L*W2/2. […]

CT26 cells = assay: Tail vein inoculation of CT26 cells in BALB/c mice, metastasis and survival; format: in vivo, mouse
Description: Animal metastasis studies: Animal experiments were performed in accordance with protocols approved by the MSKCC Institutional Animal Care and Use Committee. […] There was no need to randomize animals. Investigators were not blinded to group allocation. For tail vein injections, 5×10^4 4T1, 2.5×10^4 B16F10, or 10^5 CT26 cells were injected into the tail vein of 6-7-week old BALB/c (4T1 and CT26) or C57BL/6 (B16F10) mice. Metastasis was primarily assessed through overall survival. Overall survival endpoint was met when the mice died or met the criteria for euthanasia under the IACUC protocol. Animals were censored when death was confirmed to have occurred due to metastasis-unrelated causes such as injury or death during injection, surgery, or anesthesia. Surface lung metastases were assessed at endpoint by direct visual examination after euthanasia at which points lungs were perfused and fixed in 4% paraformaldehyde (4T1 and B16F10 experiments) or stained using India-ink (CT26 experiments). […] H-151 was reconstituted in DMSO with concentration of 100 mM. Each mouse was injected intraperitoneally with 7.5 μL of H-151 stock solution in 200 μL of PBS with 0.1% Tween −80.

STING = molecular target: T1, STING (Mus musculus, UniProt Q3TBT3); assay: ISG expression in cGAMP-transfected Cgas-KO 4T1 cells with or without C-176; format: cell-based; conditions: in the presence of C-176
T1 construct: endogenous in cells; host or cells: Cgas-KO 4T1 cells (mouse mammary carcinoma; parental line from ATCC)
T1 sequence (Q3TBT3 1-378): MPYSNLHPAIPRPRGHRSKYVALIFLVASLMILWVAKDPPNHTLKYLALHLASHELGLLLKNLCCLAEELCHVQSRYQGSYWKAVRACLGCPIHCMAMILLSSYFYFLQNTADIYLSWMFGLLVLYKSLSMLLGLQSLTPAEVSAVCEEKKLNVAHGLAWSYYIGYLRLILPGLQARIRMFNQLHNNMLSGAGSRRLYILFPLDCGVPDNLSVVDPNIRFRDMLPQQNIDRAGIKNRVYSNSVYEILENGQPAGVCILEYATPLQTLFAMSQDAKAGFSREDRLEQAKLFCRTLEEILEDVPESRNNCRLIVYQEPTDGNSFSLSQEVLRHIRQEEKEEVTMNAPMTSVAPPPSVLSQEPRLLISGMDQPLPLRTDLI
Description: Quantitative PCR for STING inhibition study: RNA was extracted from cells with Trizol (Invitrogen, Carlsbad, CA, #15596026). cDNA was synthesized using the RNA to cDNA EcoDry™ Premix (Double Primed) kit (Takara #639549). Real-time PCR was performed to measure the relative mRNA expression levels of ISGs and the control GAPDH using Luna® Universal qPCR Master Mix (NEB, IPSWICH, MA, M3003L). The qPCR reaction and analysis were performed on a QuantStudio 6 platform (Life technology, Carlsbad, CA). The sequence of primers for Ccl5 is 5′-[sequence]-3′ and 5′-[sequence]-3′. […] The sequence for primers for Gapdh is 5′-[sequence]-3′ and 5′-[sequence]-3′.

[2] = Blood chemistry of mice treated with C-176; format: in vivo, mouse; conditions: animals 1, 2
B16F10 cells [3] = conditions: 1 μM C-176, 48 hours
Description: RNA was extracted using the RNeasy Mini Kit (Qiagen, Hilden, Germany, 74104). Non-strand-specific paired end sequencing libraries were generated with TruSeq Stranded mRNA (Illumina, San Diego, CA, 20020594) and sequenced on the Illumina NovaSeq platform. Reads were mapped to the mouse reference GRCm38 with the Broad Picard Pipeline (broadinstitute.github.io/picard/). […] Differential analysis was performed by DESeq2 (v1.24.0) as described by Love, M. I., et al., Genome Biol. 15: 550 (2014), the totality of which is incorporated herein by reference. Gene set enrichment analysis was performed on the normalized reads estimated by DESeq2.

[4] = Blood counts of mice treated with C-176; format: in vivo, mouse; conditions: for NEUT: reference range 9.86-39.11; for LYMPH: reference range 48.81-83.82
[5] = automated differential, animals 1, 2
[6] = complete blood count, animals 1, 2
[7] = manual differential, animals 1, 2

With O=C(Nc1ccc(I)cc1)c1ccc([N+](=O)[O-])o1 [C-176] the “survival of tumor bearing mice” value (B16F10 cells [1]; B16F10, C57BL/6, daily IP, vs vehicle) was “significantly prolonged survival”, the “treated group with no evidence of disease” value (B16F10 cells [1]; B16F10-bearing animals, at 98 days) was ~30% and the “number of CT26 lung metastasis” value (CT26 cells; 13 days after tail vein injection, daily IP) was “significant reduction”. For the same molecule, the “survival of tumor bearing mice” value (CT26 cells; CT26, BALB/c, IP, vs vehicle) was “significantly prolonged survival”, the “effect on ISG induction by cGAMP transfection” value (STING) was “suppressed” and the “A/G Ratio” value [2] was 1.3 and 1.4. The “Anion Gap” value [2] was 26 and 32, the “BASELINE CORTISOL” value [2] was 0.811 and 0.662 and the “BUN/CREA Ratio” value [2] was 85.0 and 84.2. For the same molecule, the DBIL [2] was 0.0 mg/dL, the GGT [2] was 0 U/L and the IBIL [2] was 0.1. The Na/K [2] was 19 and 16, the TCO2 [2] was 24 mEq/L and 18 mEq/L and the CREA ([2]; reference range 0.2-0.5) was 0.20 mg/dL and 0.19 mg/dL. The TBIL ([2]; reference range 0.2-0.6) was 0.1 mg/dL, the GLOB ([2]; reference range 1.7-2.2) was 2.3 g/dL and 1.9 g/dL and the ALB ([2]; reference range 2.4-4.3) was 3.1 g/dL and 2.6 g/dL. The TP ([2]; reference range 4.8-7.2) was 5.4 g/dL and 4.5 g/dL, the BUN ([2]; reference range 5.0-28) was 17 mg/dL and 16 mg/dL and the K ([2]; reference range 7.3-11.1) was 8.1 mEq/L and 9.7 mEq/L. For the same molecule, the Ca ([2]; reference range 9.5-12.5) was 10.0 mg/dL and 9.9 mg/dL, the ALT ([2]; reference range 27-195) was 26 U/L and 32 U/L and the AST ([2]; reference range 54-77) was 134 U/L and 69 U/L. For the same molecule, the CHOL ([2]; reference range 55-169) was 103 mg/dL and 93 mg/dL, the TRIG ([2]; reference range 67-289) was 82 mg/dL and 80 mg/dL and the ALP ([2]; reference range 105-370) was 61 U/L and 40 U/L. The CL ([2]; reference range 111-134) was 115 mEq/L and 113 mEq/L, the Na ([2]; reference range 145-181) was 157 mEq/L and 153 mEq/L and the GLU ([2]; reference range 172-372) was 205 mg/dL and 210 mg/dL. The “baseline expression of inflammation-related genes (Ccl5, Cxcl10, Isg15)” value (B16F10 cells [3]) was “significant reductions”, the “expression of STING-dependent genes” value (B16F10 cells [3]) was “significantly reduced” and the “gene set enrichment analysis (GSEA) pathways” value (B16F10 cells [3]) was “downregulation of pathways related to inflammation and of genes involved in the epithelial-to-mesenchymal transition (EMT)”. For the same molecule, the BASO ([4]; automated differential, animals 1, 2, reference range 0.00-1.84) was 0% and 0.1%, the “EO#” value ([4]; automated differential, animals 1, 2, reference range 0.01-0.49) was 0.1 K/uL and 0.16 K/uL and the “MONO#” value ([4]; automated differential, animals 1, 2, reference range 0.21-1.37) was 0.22 K/uL and 0.25 K/uL. The “NEUT#” value ([4]; automated differential, animals 1, 2, reference range 0.58-3.83) was 2.98 K/uL and 4.69 K/uL, the “LYMPH#” value ([4]; automated differential, animals 1, 2, reference range 2.22-11.56) was 3.35 K/uL and 3.14 K/uL and the MONO ([4]; automated differential, animals 1, 2, reference range 3.29-14.33) was 3.3% and 3%. For the same molecule, the “WBC#” value ([4]; automated differential, animals 1, 2, reference range 3.48-14.84) was 6.65 K/uL and 8.25 K/uL, the NEUT [4, 5] was 44.8% and 56.9% and the LYMPH [4, 5] was 50.4% and 38.1%. The EO ([4]; automated differential, animals 1, 2, reference range printed 7 0.07-4.91^) was 1.5% and 1.9%, the PDW [4, 6] was 9.9 fL and 10.3 fL and the RDW-SD [4, 6] was 29.1 fL and 29.6 fL. The RET ([4]; complete blood count, animals 1, 2, reference range 2.56-4.56) was 4.04% and 5.29%, the MPV ([4]; complete blood count, animals 1, 2, reference range 4.6-5.9) was 7 fL and 7.3 fL and the RBC ([4]; complete blood count, animals 1, 2, reference range 6.93-12.24) was 10.18 M/uL and 9.5 M/uL. The HGB ([4]; complete blood count, animals 1, 2, reference range 12.4-20.5) was 15.3 g/dL and 14.4 g/dL, the MCH ([4]; complete blood count, animals 1, 2, reference range 13.0-17.6) was 15 pg and 15.2 pg and the RDW-CV ([4]; complete blood count, animals 1, 2, reference range 16.9-23.5) was 25.4% and 24%. For the same molecule, the MCHC ([4]; complete blood count, animals 1, 2, reference range 23.3-33.1) was 32.3 g/dL and 31.9 g/dL, the HCT ([4]; complete blood count, animals 1, 2, reference range 42.1-68.3) was 47.3% and 45.2% and the MCV ([4]; complete blood count, animals 1, 2, reference range 50.7-64.4) was 46.5 fL and 47.6 fL. The “RET#” value ([4]; complete blood count, animals 1, 2, reference range 294-444) was 411.3 K/uL and 502.6 K/uL, the PLT ([4]; complete blood count, animals 1, 2, reference range 420-1698) was 1137 K/uL and 1026 K/uL and the BAND ([4]; manual differential, animal 1) was 1%. The EO ([4]; manual differential, animals 1, 2, reference range 0.07-4.91) was 2% and 1%, the NEUT [4, 7] was 45% and 57% and the LYMPH [4, 7] was 52% and 42%.
